Where two headings read alike, the source gives them in different places. One block for each compound: values may come before it.
Columns and labels:
Experiment in all cases: biochemical
Design in all cases: DiscoveRx KINOMEscan active site-directed competition binding; percent of control kinase bound to immobilised ligand
PRKD1 = target: T1, PRKD1 (Homo sapiens, UniProt Q15139)
T1 sequence (Q15139 1-912): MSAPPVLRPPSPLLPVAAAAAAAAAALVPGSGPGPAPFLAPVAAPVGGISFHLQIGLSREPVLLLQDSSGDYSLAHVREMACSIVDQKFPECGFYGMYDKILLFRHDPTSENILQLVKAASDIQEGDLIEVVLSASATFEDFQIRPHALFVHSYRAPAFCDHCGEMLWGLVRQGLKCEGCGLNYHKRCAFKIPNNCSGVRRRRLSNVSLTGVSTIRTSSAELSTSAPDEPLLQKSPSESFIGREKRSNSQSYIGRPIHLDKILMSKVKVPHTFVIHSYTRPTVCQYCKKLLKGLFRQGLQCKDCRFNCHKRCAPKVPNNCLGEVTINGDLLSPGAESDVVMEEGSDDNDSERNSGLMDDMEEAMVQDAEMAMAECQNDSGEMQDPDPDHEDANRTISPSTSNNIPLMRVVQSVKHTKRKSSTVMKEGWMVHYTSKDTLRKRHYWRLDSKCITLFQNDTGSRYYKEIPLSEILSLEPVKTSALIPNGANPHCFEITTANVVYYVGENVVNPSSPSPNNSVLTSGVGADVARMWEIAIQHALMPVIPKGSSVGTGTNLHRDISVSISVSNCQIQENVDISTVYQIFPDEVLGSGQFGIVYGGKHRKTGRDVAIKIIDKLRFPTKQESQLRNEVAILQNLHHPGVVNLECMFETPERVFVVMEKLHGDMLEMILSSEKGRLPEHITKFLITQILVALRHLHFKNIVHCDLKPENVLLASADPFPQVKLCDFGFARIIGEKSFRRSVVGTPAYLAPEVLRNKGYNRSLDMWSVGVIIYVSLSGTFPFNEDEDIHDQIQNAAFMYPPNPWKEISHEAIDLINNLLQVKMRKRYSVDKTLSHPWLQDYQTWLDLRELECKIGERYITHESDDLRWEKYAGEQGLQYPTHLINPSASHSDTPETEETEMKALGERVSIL

LRRK2(G2019S) = LRRK2(G2019S) (Homo sapiens, UniProt Q5S007, G2019S)
LRRK2(G2019S), sequence (Q5S007 whole entry G2019S): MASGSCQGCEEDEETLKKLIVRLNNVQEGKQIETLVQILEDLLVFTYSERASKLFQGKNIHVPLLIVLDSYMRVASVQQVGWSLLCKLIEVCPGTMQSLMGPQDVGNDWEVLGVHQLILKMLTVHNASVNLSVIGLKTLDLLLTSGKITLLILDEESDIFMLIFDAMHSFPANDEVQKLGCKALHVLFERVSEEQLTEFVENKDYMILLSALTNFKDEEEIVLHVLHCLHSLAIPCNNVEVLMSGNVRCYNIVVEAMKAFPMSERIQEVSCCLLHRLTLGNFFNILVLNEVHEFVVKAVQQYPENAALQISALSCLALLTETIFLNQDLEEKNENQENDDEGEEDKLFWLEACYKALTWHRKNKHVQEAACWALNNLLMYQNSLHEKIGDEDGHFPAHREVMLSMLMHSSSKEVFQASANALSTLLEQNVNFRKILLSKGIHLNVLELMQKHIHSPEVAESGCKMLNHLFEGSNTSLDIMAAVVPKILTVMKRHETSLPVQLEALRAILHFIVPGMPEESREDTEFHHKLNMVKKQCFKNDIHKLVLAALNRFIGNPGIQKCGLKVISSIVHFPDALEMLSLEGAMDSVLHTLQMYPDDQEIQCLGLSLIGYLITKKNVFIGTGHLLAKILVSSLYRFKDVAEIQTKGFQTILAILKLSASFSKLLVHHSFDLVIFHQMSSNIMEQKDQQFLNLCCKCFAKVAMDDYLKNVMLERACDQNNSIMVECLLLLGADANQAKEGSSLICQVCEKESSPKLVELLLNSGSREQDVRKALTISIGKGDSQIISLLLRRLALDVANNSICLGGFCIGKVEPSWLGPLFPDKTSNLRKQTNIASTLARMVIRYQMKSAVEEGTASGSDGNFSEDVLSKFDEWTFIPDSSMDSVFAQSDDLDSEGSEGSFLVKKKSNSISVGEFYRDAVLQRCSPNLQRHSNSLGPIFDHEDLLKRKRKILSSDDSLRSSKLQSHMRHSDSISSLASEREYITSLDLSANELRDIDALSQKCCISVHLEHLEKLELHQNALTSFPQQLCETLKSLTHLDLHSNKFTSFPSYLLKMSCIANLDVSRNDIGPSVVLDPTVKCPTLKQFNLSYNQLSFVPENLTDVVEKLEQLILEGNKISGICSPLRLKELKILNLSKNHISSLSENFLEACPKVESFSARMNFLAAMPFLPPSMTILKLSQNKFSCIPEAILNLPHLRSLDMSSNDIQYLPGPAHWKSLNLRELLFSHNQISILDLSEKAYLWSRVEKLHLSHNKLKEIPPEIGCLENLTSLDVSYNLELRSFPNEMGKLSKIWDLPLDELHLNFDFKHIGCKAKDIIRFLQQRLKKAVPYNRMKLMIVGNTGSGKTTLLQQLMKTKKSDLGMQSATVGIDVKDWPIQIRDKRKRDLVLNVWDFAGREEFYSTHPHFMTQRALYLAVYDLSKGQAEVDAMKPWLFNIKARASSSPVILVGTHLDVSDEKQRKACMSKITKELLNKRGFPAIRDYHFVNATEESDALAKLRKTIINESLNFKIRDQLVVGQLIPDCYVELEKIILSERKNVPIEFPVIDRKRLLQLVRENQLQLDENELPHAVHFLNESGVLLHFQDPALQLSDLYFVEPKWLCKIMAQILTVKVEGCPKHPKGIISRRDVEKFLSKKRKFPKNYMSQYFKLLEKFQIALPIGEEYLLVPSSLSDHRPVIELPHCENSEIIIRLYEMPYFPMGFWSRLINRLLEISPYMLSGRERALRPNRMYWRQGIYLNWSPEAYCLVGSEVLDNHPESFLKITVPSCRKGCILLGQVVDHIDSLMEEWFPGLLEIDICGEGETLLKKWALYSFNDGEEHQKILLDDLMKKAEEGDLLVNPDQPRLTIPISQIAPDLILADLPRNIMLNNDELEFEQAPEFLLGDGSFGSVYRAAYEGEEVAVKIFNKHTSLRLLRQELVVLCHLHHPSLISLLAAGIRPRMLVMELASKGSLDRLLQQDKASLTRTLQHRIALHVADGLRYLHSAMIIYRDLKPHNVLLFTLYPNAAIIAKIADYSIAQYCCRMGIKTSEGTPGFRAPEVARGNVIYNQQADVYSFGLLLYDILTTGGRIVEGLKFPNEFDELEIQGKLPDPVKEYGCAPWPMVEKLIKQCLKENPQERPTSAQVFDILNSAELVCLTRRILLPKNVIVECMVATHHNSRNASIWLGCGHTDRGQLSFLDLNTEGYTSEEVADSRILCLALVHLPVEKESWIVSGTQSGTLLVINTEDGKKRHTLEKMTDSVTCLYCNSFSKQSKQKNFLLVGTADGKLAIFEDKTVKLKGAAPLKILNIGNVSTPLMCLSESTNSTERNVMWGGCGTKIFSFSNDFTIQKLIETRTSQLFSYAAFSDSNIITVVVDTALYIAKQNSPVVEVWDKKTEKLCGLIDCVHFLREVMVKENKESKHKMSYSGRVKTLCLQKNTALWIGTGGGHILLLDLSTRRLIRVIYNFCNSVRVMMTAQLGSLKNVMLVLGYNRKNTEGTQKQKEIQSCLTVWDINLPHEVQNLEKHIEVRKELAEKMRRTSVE

KIT = KIT (Homo sapiens, UniProt P10721)
KIT, sequence (P10721 whole entry): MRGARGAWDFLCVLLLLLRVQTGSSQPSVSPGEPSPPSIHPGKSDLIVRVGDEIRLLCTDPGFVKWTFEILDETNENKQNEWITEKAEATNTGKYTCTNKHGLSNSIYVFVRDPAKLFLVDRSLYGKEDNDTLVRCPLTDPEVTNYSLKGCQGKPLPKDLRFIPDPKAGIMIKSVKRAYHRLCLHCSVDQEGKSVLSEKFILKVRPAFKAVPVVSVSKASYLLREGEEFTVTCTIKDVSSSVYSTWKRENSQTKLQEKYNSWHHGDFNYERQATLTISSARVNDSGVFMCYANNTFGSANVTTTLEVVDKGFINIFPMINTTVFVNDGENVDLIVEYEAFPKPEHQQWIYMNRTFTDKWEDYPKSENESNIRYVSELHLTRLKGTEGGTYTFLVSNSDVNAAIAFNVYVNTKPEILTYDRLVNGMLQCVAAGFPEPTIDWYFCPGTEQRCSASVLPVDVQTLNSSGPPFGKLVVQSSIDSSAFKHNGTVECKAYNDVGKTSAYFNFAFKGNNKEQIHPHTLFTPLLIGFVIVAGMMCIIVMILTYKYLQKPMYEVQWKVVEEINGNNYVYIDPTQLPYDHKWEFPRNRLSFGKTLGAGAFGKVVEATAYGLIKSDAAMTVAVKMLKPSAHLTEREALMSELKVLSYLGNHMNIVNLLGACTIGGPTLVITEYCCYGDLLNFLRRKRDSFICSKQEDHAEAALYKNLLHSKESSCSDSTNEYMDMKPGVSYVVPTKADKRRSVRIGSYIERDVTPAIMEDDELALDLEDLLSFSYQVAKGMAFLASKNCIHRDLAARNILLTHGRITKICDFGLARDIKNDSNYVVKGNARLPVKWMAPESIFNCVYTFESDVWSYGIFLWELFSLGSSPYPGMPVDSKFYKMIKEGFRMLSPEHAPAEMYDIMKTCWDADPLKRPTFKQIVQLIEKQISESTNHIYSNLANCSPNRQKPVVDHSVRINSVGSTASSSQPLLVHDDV

GAK = target: T2, GAK (Homo sapiens, UniProt O14976)
T2 sequence (O14976 1-1311): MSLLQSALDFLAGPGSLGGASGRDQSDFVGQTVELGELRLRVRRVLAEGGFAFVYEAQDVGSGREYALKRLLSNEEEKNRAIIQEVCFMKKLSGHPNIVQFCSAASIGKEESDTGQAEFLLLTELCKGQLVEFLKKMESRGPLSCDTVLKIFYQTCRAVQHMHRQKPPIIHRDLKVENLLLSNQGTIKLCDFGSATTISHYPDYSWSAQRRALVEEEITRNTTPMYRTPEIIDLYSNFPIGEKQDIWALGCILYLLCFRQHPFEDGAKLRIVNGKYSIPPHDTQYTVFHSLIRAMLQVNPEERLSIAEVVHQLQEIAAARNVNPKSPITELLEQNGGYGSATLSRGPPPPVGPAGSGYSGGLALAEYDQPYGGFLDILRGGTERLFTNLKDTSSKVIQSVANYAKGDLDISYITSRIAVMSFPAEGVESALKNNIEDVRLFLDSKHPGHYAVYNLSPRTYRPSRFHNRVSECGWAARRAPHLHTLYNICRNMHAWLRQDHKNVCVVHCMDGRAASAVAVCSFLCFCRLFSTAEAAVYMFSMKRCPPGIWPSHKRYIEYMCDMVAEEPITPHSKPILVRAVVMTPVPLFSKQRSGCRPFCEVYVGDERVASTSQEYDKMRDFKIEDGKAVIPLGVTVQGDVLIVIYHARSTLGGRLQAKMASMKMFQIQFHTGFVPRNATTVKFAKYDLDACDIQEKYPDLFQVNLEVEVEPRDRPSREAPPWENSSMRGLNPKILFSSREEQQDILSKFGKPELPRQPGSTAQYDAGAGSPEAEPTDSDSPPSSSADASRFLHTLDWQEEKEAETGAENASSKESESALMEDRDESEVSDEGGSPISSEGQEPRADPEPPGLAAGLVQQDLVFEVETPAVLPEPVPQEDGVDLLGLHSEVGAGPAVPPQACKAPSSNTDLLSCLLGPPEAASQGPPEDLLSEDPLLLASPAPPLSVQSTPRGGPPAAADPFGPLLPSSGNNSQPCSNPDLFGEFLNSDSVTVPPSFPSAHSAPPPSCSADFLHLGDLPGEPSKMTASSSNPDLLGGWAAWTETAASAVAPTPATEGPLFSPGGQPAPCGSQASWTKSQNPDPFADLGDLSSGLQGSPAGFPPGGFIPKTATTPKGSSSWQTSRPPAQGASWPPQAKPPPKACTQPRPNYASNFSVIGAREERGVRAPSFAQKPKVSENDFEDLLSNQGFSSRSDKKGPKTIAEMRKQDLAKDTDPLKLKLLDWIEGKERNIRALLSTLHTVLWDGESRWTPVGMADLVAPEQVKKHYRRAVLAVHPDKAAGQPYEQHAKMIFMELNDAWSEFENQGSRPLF

KIT(A829P) = KIT(A829P) (Homo sapiens, UniProt P10721, A829P)
KIT(A829P), sequence (P10721 whole entry A829P): as the sequence (P10721 whole entry) above, with A829P counted along it

BLK = BLK (Homo sapiens, UniProt P51451)
BLK, sequence (P51451 whole entry): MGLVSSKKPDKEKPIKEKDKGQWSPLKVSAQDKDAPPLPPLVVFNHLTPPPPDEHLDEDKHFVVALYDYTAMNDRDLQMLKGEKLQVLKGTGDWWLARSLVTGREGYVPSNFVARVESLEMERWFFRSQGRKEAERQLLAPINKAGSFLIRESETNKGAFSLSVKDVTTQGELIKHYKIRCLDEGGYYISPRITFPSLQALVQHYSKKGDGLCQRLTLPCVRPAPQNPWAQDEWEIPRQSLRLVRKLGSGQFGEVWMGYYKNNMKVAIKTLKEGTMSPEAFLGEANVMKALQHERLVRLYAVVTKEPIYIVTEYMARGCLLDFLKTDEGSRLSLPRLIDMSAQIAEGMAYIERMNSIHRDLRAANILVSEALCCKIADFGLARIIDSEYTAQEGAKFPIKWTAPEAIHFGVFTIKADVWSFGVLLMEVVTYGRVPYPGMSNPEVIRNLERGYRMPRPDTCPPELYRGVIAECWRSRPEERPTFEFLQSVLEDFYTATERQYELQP

CDK2 = CDK2 (Homo sapiens, UniProt P24941)
ACVR2B = ACVR2B (Homo sapiens, UniProt Q13705)
ACVR2B, sequence (Q13705 whole entry): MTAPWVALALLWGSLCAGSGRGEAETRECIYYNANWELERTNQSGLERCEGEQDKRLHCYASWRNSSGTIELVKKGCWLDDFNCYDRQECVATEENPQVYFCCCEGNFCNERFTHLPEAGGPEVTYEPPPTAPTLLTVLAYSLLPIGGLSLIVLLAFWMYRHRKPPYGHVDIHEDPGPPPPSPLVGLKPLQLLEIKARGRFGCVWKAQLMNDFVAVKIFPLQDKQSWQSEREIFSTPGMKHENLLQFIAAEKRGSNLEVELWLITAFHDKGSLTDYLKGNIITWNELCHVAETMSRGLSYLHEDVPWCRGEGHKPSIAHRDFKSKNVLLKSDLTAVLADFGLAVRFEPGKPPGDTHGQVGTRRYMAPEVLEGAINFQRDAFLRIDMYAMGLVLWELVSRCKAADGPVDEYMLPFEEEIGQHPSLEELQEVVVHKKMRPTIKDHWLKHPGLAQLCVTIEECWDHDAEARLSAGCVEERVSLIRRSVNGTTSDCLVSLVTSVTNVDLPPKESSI

[1] = read-out: Niraparib (MK-4827) / %Ctrl @ 10000nM
[2] = read-out: Rucaparib / %Ctrl @ 10000nM, binding competition, % of control
[3] = read-out: Olaparib / %Ctrl @ 10000nM
[4] = read-out: Talazoparib (BMN 673) / %Ctrl @ 10000nM

Compound: NC(=O)c1cccc2cn(-c3ccc([C@@H]4CCCNC4)cc3)nc12 [Niraparib]
percent of control binding at 10 µM (PRKD1; [1]): 86%
percent of control binding at 10 µM (LRRK2(G2019S); [1]): 89%
percent of control binding at 10 µM (KIT; [1]): 87%
percent of control binding at 10 µM (GAK; [1]): 58%
percent of control binding at 10 µM (KIT(A829P); [1]): 98%
percent of control binding at 10 µM (BLK; [1]): 72%
percent of control binding at 10 µM (CDK2; [1]): 100%
percent of control binding at 10 µM (ACVR2B; [1]): 100%

percent of control binding at 10 µM (PRKD1; [2]): 67%
percent of control binding at 10 µM (LRRK2(G2019S); [2]): 87%
percent of control binding at 10 µM (KIT; [2]): 100%
percent of control binding at 10 µM (GAK; [2]): 35%
percent of control binding at 10 µM (KIT(A829P); [2]): 88%
percent of control binding at 10 µM (BLK; [2]): 91%
percent of control binding at 10 µM (CDK2; [2]): 98%
percent of control binding at 10 µM (ACVR2B; [2]): 100%
Compound: CNCc1ccc(-c2[nH]c3cc(F)cc4c3c2CCNC4=O)cc1 [Rucaparib]

percent of control binding at 10 µM (PRKD1; [3]): 89%
percent of control binding at 10 µM (LRRK2(G2019S); [3]): 84%
percent of control binding at 10 µM (KIT; [3]): 99%
percent of control binding at 10 µM (GAK; [3]): 100%
percent of control binding at 10 µM (BLK; [3]): 90%
percent of control binding at 10 µM (CDK2; [3]): 93%
percent of control binding at 10 µM (ACVR2B; [3]): 100%
Compound: O=C(c1cc(Cc2n[nH]c(=O)c3ccccc23)ccc1F)N1CCN(C(=O)C2CC2)CC1 [Olaparib]

percent of control binding at 10 µM (PRKD1; [4]): 100%
percent of control binding at 10 µM (LRRK2(G2019S); [4]): 100%
percent of control binding at 10 µM (KIT; [4]): 100%
percent of control binding at 10 µM (GAK; [4]): 100%
percent of control binding at 10 µM (KIT(A829P); [4]): 100%
percent of control binding at 10 µM (BLK; [4]): 99%
percent of control binding at 10 µM (CDK2; [4]): 96%
percent of control binding at 10 µM (ACVR2B; [4]): 100%
Compound: Cn1ncnc1[C@H]1c2n[nH]c(=O)c3cc(F)cc(c23)N[C@@H]1c1ccc(F)cc1 [Talazoparib]
